According to patent publication US9403806B1, “Cognition enhancing compounds and compositions, methods of making, and methods of treating” (NeuroSolis, Inc., priority 2010, dated 2016):
Where two headings read alike, the source gives them in different places.

Experiments:
[1] = biological target: T1, human muscarinic M1 receptors (Homo sapiens, UniProt P11229); assay type: cell-based; details: for huM1/A9L Smax: percentage of maximal stimulation by carbachol; for huM1/A9L Potency relative to carbachol: relative to the potency of carbachol at its EC50
T1 construct: host or cells: A9L cells
T1 sequence (P11229 1-460): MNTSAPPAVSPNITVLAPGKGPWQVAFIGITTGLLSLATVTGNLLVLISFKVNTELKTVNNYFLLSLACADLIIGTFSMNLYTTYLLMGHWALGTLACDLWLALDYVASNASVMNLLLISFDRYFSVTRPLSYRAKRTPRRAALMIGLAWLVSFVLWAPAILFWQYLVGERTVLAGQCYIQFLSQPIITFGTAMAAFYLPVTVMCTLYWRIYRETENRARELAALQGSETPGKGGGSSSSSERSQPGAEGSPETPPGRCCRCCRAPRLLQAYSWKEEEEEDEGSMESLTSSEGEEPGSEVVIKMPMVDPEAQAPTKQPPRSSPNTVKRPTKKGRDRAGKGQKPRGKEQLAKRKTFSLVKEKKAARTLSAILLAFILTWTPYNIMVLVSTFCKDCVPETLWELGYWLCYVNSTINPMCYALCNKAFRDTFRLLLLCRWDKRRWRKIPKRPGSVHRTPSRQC
Protocol: (§1) Muscarinic M1 and M3 agonist activity was evaluated by measuring the stimulation of inositol phosphate (IP) production in the presence of lithium chloride from A9L cells transfected with expression plasmids containing human muscarinic M1 and M3 receptors, respectively. The cell lines were a gift from Professor William Messer, and the methods were as described in Tejada et al. (J. Med. Chem. 2006; 49: 7518-31) except that the assay was scaled down to run in 384-well plates and the concentration of inositol-1-phosphate in the lysates was determined using the non-isotopic IP-One Terbium TR-FRET assay kit (Cisbio Bioassays, cat. #62IPAPEJ) according to the manufacturer's instructions.
(§2) Cells were grown to 90% confluence in 384-well high-base, small-volume plates (Greiner Bio-One), compounds were added at suitable concentrations in growth medium containing 10 mM LiCl, buffered with an extra 10 mM HEPES (pH=7.4), and incubated for 60 minutes at 37° C. Cells were lysed and assayed for IP following the manufacturer's instructions.
(§3) The value for a full agonist is 100%, while partial agonists give values below 100%.

[2] = biological target: T2, human muscarinic M3 receptors (Homo sapiens, UniProt P20309); assay type: cell-based; details: for huM3/A9L Smax: percentage of maximal stimulation by carbachol; for huM3/A9L Potency relative to carbachol: relative to the potency of carbachol at its EC50
T2 construct: host or cells: A9L cells
T2 sequence (P20309 whole entry): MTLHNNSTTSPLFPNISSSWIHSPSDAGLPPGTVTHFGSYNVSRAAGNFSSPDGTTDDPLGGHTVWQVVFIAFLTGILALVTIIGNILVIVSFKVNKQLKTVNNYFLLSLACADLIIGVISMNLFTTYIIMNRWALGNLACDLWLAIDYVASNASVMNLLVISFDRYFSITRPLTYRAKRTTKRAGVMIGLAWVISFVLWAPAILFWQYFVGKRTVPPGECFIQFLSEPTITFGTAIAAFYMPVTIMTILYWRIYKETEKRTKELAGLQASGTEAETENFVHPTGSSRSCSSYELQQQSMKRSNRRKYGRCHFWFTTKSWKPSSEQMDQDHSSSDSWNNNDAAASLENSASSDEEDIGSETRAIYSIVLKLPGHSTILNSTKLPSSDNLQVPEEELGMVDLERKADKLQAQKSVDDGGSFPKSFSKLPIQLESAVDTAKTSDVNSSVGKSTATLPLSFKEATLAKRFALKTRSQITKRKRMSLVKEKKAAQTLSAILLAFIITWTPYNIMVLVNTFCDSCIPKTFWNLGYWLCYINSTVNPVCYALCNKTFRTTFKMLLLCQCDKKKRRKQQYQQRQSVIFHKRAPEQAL
Protocol: as §1, §2, §3

[3] = tested on: muscarinic M1 receptors in the hippocampus; assay: In vivo inositol phosphate increase in hippocampus, Example 44; parameters: species or system Long Evans Hooded rats; details: rat, 3 mg/kg sc
Protocol: (§4) In lithium chloride-treated laboratory rodents, engagement of muscarinic M1 receptors in the hippocampus may usefully be evaluated in vivo by measuring the increase in the tissue of inositol phosphate (Bymaster F P et al Brain Res 795 (1998) 179-190). This may also be extended to measure engagement of muscaric M3 receptors in the salivary glands.
(§5) Experimental compounds were administered subcutaneously at 3 mg/kg using standard techniques to Long Evans Hooded rats weighing 225 to 350 g, and which had been pretreated with a subcutaneous injection of lithium chloride at a suitable dose between 3 and 5 mmole/kg. At suitable times the animals were briefly anesthetized using 5% isoflurane and euthanized by decapitation. The brains and submaxillary salivary glands were rapidly dissected out, and the hippocampuses were dissected from the brains. The dissected tissues were homogenized in a suitable volume of ice-cold phosphate-buffered saline containing 10 mM lithium chloride (pH=7.4) using a tissue homogenizer, and used immediately or frozen in aliquots at −80° C. for future use. The concentration of inositol-1-phosphate was determined in the homogenates using the […] IP-One Terbium TR-FRET assay kit (Cisbio Bioassays, cat. #62IPAPEJ) according to the manufacturer's instructions.

[4] = tested on: muscarinic M3 receptors in the salivary glands; assay: In vivo inositol phosphate increase in salivary glands, Example 44; parameters: species or system Long Evans Hooded rats; details: rat, 3 mg/kg sc
Protocol: as §4, §5

[5] = tested on: pooled male human liver microsomes; assay: Metabolism in human liver microsomes, Example 45; assay type: in vitro ADME
Protocol: Aliquots were removed every 2 hours, and 1% formic acid was added to halt the reaction. Samples were centrifuged, filtered through 0.2 micron spinfilter, and the amount of each compound in the supernatants was quantitated using LC/MS/MS as follows. The ultra-filtrates were subjected to reverse-phase liquid chromatography using a 150×2.1 mm Agilent C8-reverse phase column on a Shimadzu Prominence LC, eluting the compound with a gradient of 2%-50% acetonitrile+0.1% formic acid over 5 minutes. The concentration of the compound in the column effluent was measured using an Applied Biosystems API-3200 triple quadrupole mass spectrometer equipped with a Turbo V source (electrospray sample injection) system. The counts of the characteristic parent ions of the protonated compound and product ions were converted to concentration by comparison with a standard calibration curve. The parent/daughter ion pairs that were monitored for each compound were: 166.0/82.0 (105), 166.0/82.0 (106b), 166.0/82.0 (106a), 169.0/83.0 (136), 168.2/83.0 (121), 168.1/83.0 (122a), 168.1/83.0 (122b), 170.2/83.0 (134), 168.2/84.1 (135), 168.1/84.1 (137) and 169.2/82.1 (138).

[6] = in vitro; assay type: in vitro ADME; details: PAMPA, pH 7.4, 400 μM, pH 7.4, 24 hours, room temperature; read-out: PAMPA Permeability Coefficient (×10^6)
Protocol: PAMPA is a useful in vitro model for predicting the passive diffusion of drugs across the blood-brain barrier (Li, D et al Eur jour of Med Chem 38 (2003) 223-232).
Compounds were diluted in a 100 mM phosphate buffer (pH 7.4) to a concentration of 400 μM and the stock solutions were placed into a 96-well filter plate (Millipore, #MAIPN4510) pre-wetted with 20 mg/mL porcine brain polar lipid extract in 100% dodecane (Avanti, #131022) and placed into a 96-well acceptor plate (Millipore, #MSSACCEPTOR) whose wells were filled with the same phosphate buffer as in the filter plate. This assembly was incubated at room temperature for 24 hours. The experiment was halted by separating the filter plate from the acceptor plate. Aliquots were removed from the filter plate wells, acceptor plate wells, and stock solutions, and 1% trifluoroacetic acid was added to each. All solutions were measured by LC/UV, and passive diffusion rates were calculated using the peak area values (Avdeef, Alex. 2003. Page 147 in Absorption and Drug Development. Hoboken, N.J.: John Wiley & Sons).

[7] = Blood and brain concentrations (rats), tail vein injection; assay type: in vivo, Long-Evans Hooded rats; details: rat; for Kp at 1 h: brain and plasma, intravenous, Table 114, read-out: Brain/Plasma Ratio; for concentration at 1 h: 3 mg/kg tail vein injection
Protocol: Long-Evans Hooded rats (Charles River: male, 230-300 g) were dosed with solutions of test compounds in PBS by tail vein injection. The dose for all compounds was 3 mg/kg. At one hour, the animals were anesthetized with isoflurane, and then euthanized by decapitation. Trunk blood was collected into a 1.5 mL microcentrifuge tube containing 15 U Heparin, and the plasma recovered after centrifugation. Brains were dissected, weighed, immediately chilled to 4° C., and homogenized using a PowerGen 125 homogenizer in five volumes of ice-cold 2% formic acid. Proteins were precipitated from plasma and brain homogenate with nine and five volumes respectively of ice-cold 2% formic acid and clarified by centrifugation. The supernatant was ultra-filtered by centrifugation through a 3K MWCO spin column (Pall Life Sciences), following the manufacturer's instructions. The concentration of compound in the ultra-filtrate was subjected to reverse-phase liquid chromatography using a 150×2.1 mm Agent C8 reverse-phase column on a Shimadzu Prominence LC, eluting the compounds with a gradient of 2% to 50% of acetonitrile+0.1% formic acid for all compounds. The concentration of the compound in the column effluent was measured using an Applied Biosystems API-3200 triple quadrupole mass spectrometer equipped with an electrospray sample injection system. The counts of the characteristic parent and product ions of each test compound were converted to concentration units by comparison with a standard curve.

[8] = as above; assay type: in vivo, Long-Evans Hooded rats; details: male, Long-Evans Hooded, rat, plasma, iv, 3 mg/kg, 3 mg/kg tail vein injection, read-out: Plasma Terminal Half-life (converted)
[9] = male, Long-Evans Hooded, 3 mg/kg
[10] = male, Long-Evans Hooded, in vivo, 3 mg/kg, read-out: Brain Concentration at 1 hr
[11] = male, Long-Evans Hooded, in vivo, 3 mg/kg, read-out: Plasma Concentration at 1 hr

[2H]C1([2H])NC([2H])([2H])C2(c3nc(C)no3)CC12 (stereo not shown) [Compound 134, 5-(2,2,4,4-d4-3-Azabicyclo[3.1.0]hexan-1-yl)-3-methyl-1,2,4-oxadiazole]
huM1/A9L Smax [1]: 61%
huM1/A9L Potency relative to carbachol [1]: 1.17
huM3/A9L Smax [2]: 41%
huM3/A9L Potency relative to carbachol [2]: 0.35
Increase in Inositol Phosphate in Hippocampus/Control ([3]; 5 mmole/kg LiCl): 574%
Increase in Inositol Phosphate in Salivary Gland/Control ([4]; 5 mmole/kg LiCl): 214%
Loss at 6 hrs (%) [5]: 10%
Papp at 24 h, 400 µM [6]: 3.46 ×10⁻⁶ cm/s
Kp at 1 h [7, 9]: 0.65
concentration at 1 h [7, 10]: 8.4 µM
concentration at 1 h [7, 11]: 13.5 µM
half-life [8]: 1.4 h

[2H]C1([2H])NC[C@@]2(c3nc(C)no3)C[C@@H]12 [Compound 122a, 5-((1R,5R)-4,4-d2-3-azabicyclo[3.1.0]hexan-1-yl)-3-methyl-1,2,4-oxadiazole]
huM1/A9L Smax [1]: 77%
huM1/A9L Potency relative to carbachol [1]: 1.09
huM3/A9L Smax [2]: 44%
huM3/A9L Potency relative to carbachol [2]: 0.38
Increase in Inositol Phosphate in Hippocampus/Control ([3]; 3 mmole/kg LiCl): 487%
Increase in Inositol Phosphate in Salivary Gland/Control ([4]; 3 mmole/kg LiCl): 182%
Loss at 6 hrs (%) [5]: 20%
Papp at 24 h, 400 µM [6]: 3.93 ×10⁻⁶ cm/s
Kp at 1 h [7, 9]: 0.59
concentration at 1 h [7, 10]: 5 µM
concentration at 1 h [7, 11]: 12.2 µM
half-life [8]: 0.97 h

[2H]C1([2H])NC[C@]2(c3nc(C)no3)C[C@H]12 [Compound 122b, 5-((1S,5S)-4,4-d2-3-azabicyclo[3.1.0]hexan-1-yl)-3-methyl-1,2,4-oxadiazole]
huM1/A9L Smax [1]: 47%
huM1/A9L Potency relative to carbachol [1]: 0.54
huM3/A9L Smax [2]: 28%
huM3/A9L Potency relative to carbachol [2]: 0.50
Increase in Inositol Phosphate in Hippocampus/Control ([3]; 3 mmole/kg LiCl): 150%
Increase in Inositol Phosphate in Salivary Gland/Control ([4]; 3 mmole/kg LiCl): 163%
Loss at 6 hrs (%) [5]: 13%
Papp at 24 h, 400 µM [6]: 3.7 ×10⁻⁶ cm/s
Kp at 1 h [7, 9]: 0.58
concentration at 1 h [7, 10]: 5.1 µM
concentration at 1 h [7, 11]: 8.8 µM
half-life [8]: 1.3 h

[2H]C([2H])([2H])c1noc(C23CNC([2H])([2H])C2C3)n1 (stereo not shown) [Compound 136, 5-(4,4,5-d3-3-azabicyclo[3.1.0]hexan-1-yl)-3-methyl-1,2,4-oxadiazole]
huM1/A9L Smax [1]: 41%
huM1/A9L Potency relative to carbachol [1]: 0.89
huM3/A9L Smax [2]: 36%
huM3/A9L Potency relative to carbachol [2]: 0.45
Increase in Inositol Phosphate in Hippocampus/Control ([3]; 5 mmole/kg LiCl, 3 mg/kg): 694%
Increase in Inositol Phosphate in Salivary Gland/Control ([4]; 5 mmole/kg LiCl, 3 mg/kg): 231%
Loss at 6 hrs (%) [5]: 11%
Papp at 24 h, 400 µM [6]: 3.71 ×10⁻⁶ cm/s
Kp at 1 h [7, 9]: 0.56
concentration at 1 h [7, 11]: 13.6 µM
concentration at 1 h ([7]; read-out: Brain Concentration at 1 hr): 7.4 µM
half-life [8]: 1.15 h

[2H]C1([2H])NCC2(c3nc(C)no3)CC12 (racemic) [Compound 121, 5-(4,4-d2-3-Azabicyclo[3.1.0]hexan-1-yl)-3-methyl-1,2,4-oxadiazole]
huM1/A9L Smax [1]: 73%
huM3/A9L Smax [2]: 37%
Increase in Inositol Phosphate in Hippocampus/Control ([3]; 5 mmole/kg LiCl): 795%
Increase in Inositol Phosphate in Salivary Gland/Control ([4]; 5 mmole/kg LiCl): 239%
Loss at 6 hrs (%) [5]: 13%
Papp at 24 h, 400 µM [6]: 3.78 ×10⁻⁶ cm/s
Kp at 1 h [7, 9]: 0.51
concentration at 1 h [7, 10]: 8.6 µM
concentration at 1 h [7, 11]: 16.8 µM
half-life [8]: 1.26 h

Cc1noc([C@]23CNC[C@H]2C3)n1 [Compound 106b, 5-((1S,5S)-3-Azabicyclo[3.1.0]hexan-1-yl)-3-methyl-1,2,4-oxadiazole]
huM1/A9L Smax [1]: 40%
huM1/A9L Potency relative to carbachol [1]: 0.51
huM3/A9L Smax [2]: 42%
huM3/A9L Potency relative to carbachol [2]: 0.27
Increase in Inositol Phosphate in Hippocampus/Control ([3]; 5 mmole/kg LiCl): 141%
Increase in Inositol Phosphate in Salivary Gland/Control ([4]; 5 mmole/kg LiCl): 104%
Loss at 6 hrs (%) [5]: 29%
Papp at 24 h, 400 µM [6]: 4.37 ×10⁻⁶ cm/s
Kp at 1 h [7, 9]: 0.6
concentration at 1 h [7, 10]: 5.5 µM
concentration at 1 h [7, 11]: 9.5 µM
half-life [8]: 1.1 h

Cc1noc([C@@]23CNC[C@@H]2C3)n1 [Compound 106a, 5-((1R,5R)-3-Azabicyclo[3.1.0]hexan-1-yl)-3-methyl-1,2,4-oxadiazole]
huM1/A9L Smax [1]: 80%
huM1/A9L Potency relative to carbachol [1]: 1.72
huM3/A9L Smax [2]: 45%
huM3/A9L Potency relative to carbachol [2]: 0.46
Increase in Inositol Phosphate in Hippocampus/Control ([3]; 5 mmole/kg LiCl): 376%
Increase in Inositol Phosphate in Salivary Gland/Control ([4]; 5 mmole/kg LiCl): 191%
Loss at 6 hrs (%) [5]: 50%
Papp at 24 h, 400 µM [6]: 4.25 ×10⁻⁶ cm/s
Kp at 1 h [7, 9]: 0.39
concentration at 1 h [7, 10]: 3.5 µM
concentration at 1 h [7, 11]: 5.6 µM
half-life [8]: 0.7 h
